{"source": "patent EP4745134A1", "about": "(Jiangsu Yahong Meditech Co., Ltd., priority 2023, dated 2025)", "key": {"PRMT5-MTA": {"target": "PRMT5-MTA (Homo sapiens, UniProt O14744)", "sequence (O14744 whole entry)": "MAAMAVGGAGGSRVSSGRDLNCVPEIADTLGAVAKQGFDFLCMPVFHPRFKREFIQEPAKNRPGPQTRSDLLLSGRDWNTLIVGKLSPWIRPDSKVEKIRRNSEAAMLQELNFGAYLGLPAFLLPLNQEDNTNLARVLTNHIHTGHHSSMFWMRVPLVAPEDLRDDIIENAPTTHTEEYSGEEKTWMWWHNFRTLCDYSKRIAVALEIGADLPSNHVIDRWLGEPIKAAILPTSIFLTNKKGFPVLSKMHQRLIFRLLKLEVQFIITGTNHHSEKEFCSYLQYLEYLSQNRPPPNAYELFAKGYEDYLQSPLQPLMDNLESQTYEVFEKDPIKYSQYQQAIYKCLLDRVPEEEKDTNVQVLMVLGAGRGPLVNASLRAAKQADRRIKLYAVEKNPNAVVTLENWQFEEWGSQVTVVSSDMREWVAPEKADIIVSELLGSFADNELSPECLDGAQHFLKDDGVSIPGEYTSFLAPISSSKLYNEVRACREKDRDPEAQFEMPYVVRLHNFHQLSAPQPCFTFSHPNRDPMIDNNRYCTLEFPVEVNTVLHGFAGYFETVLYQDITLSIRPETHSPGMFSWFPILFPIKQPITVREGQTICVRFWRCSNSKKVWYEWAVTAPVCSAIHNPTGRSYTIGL", "sequence (Q9BQA1 whole entry partner)": "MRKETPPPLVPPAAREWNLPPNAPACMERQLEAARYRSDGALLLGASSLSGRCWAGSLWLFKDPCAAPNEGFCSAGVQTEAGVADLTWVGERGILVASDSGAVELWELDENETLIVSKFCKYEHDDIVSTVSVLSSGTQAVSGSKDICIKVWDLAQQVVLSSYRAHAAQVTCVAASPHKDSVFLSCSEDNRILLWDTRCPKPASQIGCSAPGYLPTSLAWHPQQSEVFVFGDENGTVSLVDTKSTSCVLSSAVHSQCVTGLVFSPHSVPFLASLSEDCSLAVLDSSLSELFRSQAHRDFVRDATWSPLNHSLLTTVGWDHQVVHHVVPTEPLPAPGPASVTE", "experiment": "Enzymatic inhibitory activity against PRMT5-MTA (AlphaScreen)", "assay_type": "biochemical", "settings": "read-out: IC50", "method_in_brief": "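PRMT5/[…] (1 nM) was preincubated for 30 min at room temperature with 1 µM […] and 2.5 µM SAM, then exposed to compound (10-point, 3-fold from 1000 nM) for 15 min at 23 °C. Histone H4 substrate (5 nM) was added and reacted for 45 min at 23 °C. Symmetric dimethyl-R3 H4 was detected by AlphaScreen and IC50 calculated.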"}, "HCT116 MTAP KO cells": {"tested_on": "HCT116 MTAP KO cells", "experiment": "Inhibitory activity against cell proliferation (CellTiter Glo, 6 days), HCT116 MTAP KO", "assay_type": "cell-based", "settings": "for IC50: Homo sapiens, HCT-116, 144 h, HCT116 MTAP KO cells, 6 days, CellTiter Glo, read-out: HCT116 MTAP KO IC50; for Selectivity HCT 116-WT/ HCT116 MTAP KO: ratio of IC50 HCT116-WT / HCT116 MTAP KO", "method_in_brief": "(§1)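 Viability is measured by CellTiter Glo luminescence on day 7, following a 6-day treatment with compounds serially diluted 4-fold over 8 points from 10000 nM. Both lines are plated at 250 cells per well and cultured overnight beforehand.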"}, "HCT116-WT cells": {"tested_on": "HCT116-WT cells", "experiment": "Inhibitory activity against cell proliferation (CellTiter Glo, 6 days), HCT116-WT", "assay_type": "cell-based", "settings": "144 h, HCT116-WT cells, 6 days, CellTiter Glo; read-out: HCT116-WT IC50", "method_in_brief": "as §1"}, "MTAP-deficient HCT116": {"tested_on": "MTAP-deficient HCT116", "experiment": "Pharmacodynamic test in human colon cancer xenograft model (MTAP-deficient HCT116)", "assay_type": "in vivo", "settings": "100 mpk, orally by gavage once a day, HCT116 MTAP deficient mice xenograft", "protocol": "The compounds (100 mpk, blank vehicle as a control) were orally administered to the HCT116 MTAP deficient mice (cell source: creative biogene-CSC-RT2701) of human colon cancer xenograft model by gavage daily during the experimental planning period. The positive compound AMG9747 was synthesized according to the method reported in the patent WO2021163344A1. The compounds were formulated as follows: weighing 100.00 mg of a test compound, adding it to 10 mL of 0.5% MC4000+0.2% Tween 80, vortexing and shaking to prepare a suspension, i.e., a dose of 100 mpk. Each group had 8 mice and was subjected to administration by gavage once a day. The tumor volume was measured once in groups before administration, and measured on days 3, 6, 10, 13, 16 and 19 respectively after administration. The positive drug (synthesized according to the patent WO2021163344A1) AMG-9747 was used as a control, and compound AMG-9747 has a structure of: [drawing 1174] Table 3. Percentage of inhibition of the compounds of the present invention on tumor growth in the human colon cancer xenograft (MTAP-deficient HCT116) model"}}}
{"smiles": "Cc1cc2nc(N)c3cnn(C)c3c2cc1C(=O)N1CC(C)CN1c1ncc(Br)cc1F", "note": "(centres unmarked) [Example 392, (4-amino-1,7-dimethyl-1H-pyrazolo[4,3-c]quinolin-8-yl)(2-(5-bromo-3-fluoropyridin-2-yl)-4-methylpyrazolidin-1-yl)metha none]", "values": [{"measurement": "IC50", "setting": "PRMT5-MTA", "result": 4, "unit": "nM"}, {"measurement": "IC50", "setting": "HCT116 MTAP KO cells", "result": 28, "unit": "nM"}, {"measurement": "Selectivity HCT 116-WT/ HCT116 MTAP KO", "setting": "HCT116 MTAP KO cells", "result": 40.21}, {"measurement": "IC50", "setting": "HCT116-WT cells", "result": 1130, "unit": "nM"}, {"measurement": "Percentage of tumor growth inhibition", "setting": "MTAP-deficient HCT116", "result": 69, "unit": "%"}]}
{"smiles": "Cc1cc2cc(C(=O)N(Cc3ccc(C(F)(F)F)cn3)N(c3ncccn3)C3CC3)ccc2nc1N", "note": "[Example 3, 2-amino-N'-cyclopropyl-3-methyl-N'-(pyrimidin-2-yl)-N-((5-(trifluoromethyl)pyridin-2-yl)methyl)quinoline-6-carbohydrazide]", "values": [{"measurement": "IC50", "setting": "PRMT5-MTA", "result": 2.6, "unit": "nM"}, {"measurement": "IC50", "setting": "HCT116 MTAP KO cells", "result": 27, "unit": "nM"}, {"measurement": "Selectivity HCT 116-WT/ HCT116 MTAP KO", "setting": "HCT116 MTAP KO cells", "result": 21.04}, {"measurement": "IC50", "setting": "HCT116-WT cells", "result": 568, "unit": "nM"}, {"measurement": "Percentage of tumor growth inhibition", "setting": "MTAP-deficient HCT116", "result": 86, "unit": "%"}]}
{"smiles": "Cc1cc2cc(C(=O)N(Cc3ccc(-c4scnc4C)cn3)N(c3ncccn3)C3CC3)ccc2nc1N", "note": "[Example 184, 2-amino-N'-cyclopropyl-3-methyl-N-((5-(4-methylthiazol-5-yl)pyridin-2-yl)methyl)-N'-(pyrimidin-2-yl)quinoline-6-carbohydrazide]", "values": [{"measurement": "IC50", "setting": "PRMT5-MTA", "result": 7.4, "unit": "nM"}, {"measurement": "IC50", "setting": "HCT116 MTAP KO cells", "result": 13, "unit": "nM"}, {"measurement": "Selectivity HCT 116-WT/ HCT116 MTAP KO", "setting": "HCT116 MTAP KO cells", "result": 18.46}, {"measurement": "IC50", "setting": "HCT116-WT cells", "result": 240, "unit": "nM"}, {"measurement": "Percentage of tumor growth inhibition", "setting": "MTAP-deficient HCT116", "result": 81, "unit": "%"}]}
{"smiles": "Cc1cc2cc(C(=O)N(Cc3ccc(C(F)(F)F)cn3)N(C)c3ncccn3)ccc2nc1N", "note": "[Example 1, 2-amino-N',3-dimethyl-N'-(pyrimidin-2-yl)-N-((5-(trifluoromethyl)pyridin-2-yl)methyl) quinoline-6-carbohydrazide]", "values": [{"measurement": "IC50", "setting": "PRMT5-MTA", "result": 1, "unit": "nM"}, {"measurement": "IC50", "setting": "HCT116 MTAP KO cells", "result": 32, "unit": "nM"}, {"measurement": "Selectivity HCT 116-WT/ HCT116 MTAP KO", "setting": "HCT116 MTAP KO cells", "result": 19.47}, {"measurement": "IC50", "setting": "HCT116-WT cells", "result": 623, "unit": "nM"}, {"measurement": "Percentage of tumor growth inhibition", "setting": "MTAP-deficient HCT116", "result": 80, "unit": "%"}]}
{"smiles": "Cc1cc2cc(C(=O)N(Cc3ccc(-c4cnn(C(F)(F)F)c4)cn3)N(C)c3ncccn3)ccc2nc1N", "note": "[Example 189, 2-amino-N',3-dimethyl-N'-(pyrimidin-2-yl)-N-((5-(1-(trifluoromethyl)-1H-pyrazol-4-yl)pyridin-2-yl)methyl)quinoline-6-carbohydrazide]", "values": [{"measurement": "IC50", "setting": "PRMT5-MTA", "result": 1.7, "unit": "nM"}, {"measurement": "IC50", "setting": "HCT116 MTAP KO cells", "result": 55, "unit": "nM"}, {"measurement": "Selectivity HCT 116-WT/ HCT116 MTAP KO", "setting": "HCT116 MTAP KO cells", "result": 42.00}, {"measurement": "IC50", "setting": "HCT116-WT cells", "result": 2310, "unit": "nM"}, {"measurement": "Percentage of tumor growth inhibition", "setting": "MTAP-deficient HCT116", "result": 93, "unit": "%"}]}
{"smiles": "Cc1cc2cc(C(=O)N(Cc3ccc(C(F)(F)F)cn3)[C@H](C)c3ncccn3)ccc2nc1N", "note": "[AMG-9747, reference compound]", "values": [{"measurement": "Percentage of tumor growth inhibition", "setting": "MTAP-deficient HCT116", "result": 68, "unit": "%"}]}
